# From patent US11912682B2, “Isoindolinone compounds” (Monte Rosa Therapeutics, Inc., priority 2021, dated 2024)
# Experiments:
# IKZF1 = IKZF1 (Homo sapiens (Human), UniProt Q13422); assay: IKZF1 degradation in cells treated with compound (FIG. 1A); assay type: cell-based; settings: concentrations up to 30 µM
# IKZF3 = IKZF3 (Homo sapiens (Human), UniProt Q9UKT9); assay: IKZF3 degradation in cells treated with compound (FIG. 1A); assay type: cell-based; settings: concentrations up to 30 µM
# CK1alpha = CK1alpha (Homo sapiens (Human), UniProt P48729); assay: CK1alpha degradation in cells treated with compound (FIG. 1A); assay type: cell-based; settings: concentrations up to 30 µM
# NCI-H1155 = assay: Viability of NSCLC cell line, high N-Myc (FIG. 2A); assay type: cell-based, human; settings: compared to low N-Myc lines EBC-1, NCI-H2023
# ABC-1 = assay: Viability of NSCLC cell line, high N-Myc (FIG. 2A); assay type: cell-based; settings: ABC-1, high N-Myc; compared to low N-Myc lines EBC-1, NCI-H2023
# GSPT1 [1] = biological target: T1, GSPT1 (Homo sapiens (Human), UniProt P15170+Q96SW2); assay: GSPT1 degradation in high N-Myc NSCLC cells (FIG. 2); assay type: cell-based; settings: for DC50: six hours of treatment
# Target sequence in this assay (P15170 whole entry, looked up): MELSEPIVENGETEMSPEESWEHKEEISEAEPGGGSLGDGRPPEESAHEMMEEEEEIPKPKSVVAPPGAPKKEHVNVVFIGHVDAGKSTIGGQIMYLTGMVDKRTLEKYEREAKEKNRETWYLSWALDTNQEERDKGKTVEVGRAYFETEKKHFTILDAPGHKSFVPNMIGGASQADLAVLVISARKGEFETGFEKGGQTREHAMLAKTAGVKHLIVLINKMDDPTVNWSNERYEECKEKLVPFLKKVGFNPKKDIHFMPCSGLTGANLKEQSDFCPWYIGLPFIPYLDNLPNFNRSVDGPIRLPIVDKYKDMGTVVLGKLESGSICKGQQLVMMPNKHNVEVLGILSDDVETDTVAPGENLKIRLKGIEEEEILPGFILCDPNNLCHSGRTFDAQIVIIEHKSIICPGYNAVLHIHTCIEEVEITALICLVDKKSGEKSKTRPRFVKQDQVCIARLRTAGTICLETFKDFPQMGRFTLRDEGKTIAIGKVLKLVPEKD
# Target sequence in this assay (Q96SW2 whole entry, looked up): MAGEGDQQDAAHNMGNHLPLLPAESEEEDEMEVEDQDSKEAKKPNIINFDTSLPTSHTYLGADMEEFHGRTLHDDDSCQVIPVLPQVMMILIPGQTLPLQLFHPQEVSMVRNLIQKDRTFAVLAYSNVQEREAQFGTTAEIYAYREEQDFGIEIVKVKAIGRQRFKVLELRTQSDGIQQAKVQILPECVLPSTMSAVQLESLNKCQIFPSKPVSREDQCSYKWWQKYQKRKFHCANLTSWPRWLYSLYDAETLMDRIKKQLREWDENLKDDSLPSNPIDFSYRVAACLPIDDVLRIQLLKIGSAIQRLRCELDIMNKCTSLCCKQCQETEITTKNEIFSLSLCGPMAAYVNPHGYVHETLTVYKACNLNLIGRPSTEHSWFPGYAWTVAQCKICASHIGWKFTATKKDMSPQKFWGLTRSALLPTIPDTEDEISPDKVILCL
# Target sequence in this assay (Q16531 whole entry partner, looked up): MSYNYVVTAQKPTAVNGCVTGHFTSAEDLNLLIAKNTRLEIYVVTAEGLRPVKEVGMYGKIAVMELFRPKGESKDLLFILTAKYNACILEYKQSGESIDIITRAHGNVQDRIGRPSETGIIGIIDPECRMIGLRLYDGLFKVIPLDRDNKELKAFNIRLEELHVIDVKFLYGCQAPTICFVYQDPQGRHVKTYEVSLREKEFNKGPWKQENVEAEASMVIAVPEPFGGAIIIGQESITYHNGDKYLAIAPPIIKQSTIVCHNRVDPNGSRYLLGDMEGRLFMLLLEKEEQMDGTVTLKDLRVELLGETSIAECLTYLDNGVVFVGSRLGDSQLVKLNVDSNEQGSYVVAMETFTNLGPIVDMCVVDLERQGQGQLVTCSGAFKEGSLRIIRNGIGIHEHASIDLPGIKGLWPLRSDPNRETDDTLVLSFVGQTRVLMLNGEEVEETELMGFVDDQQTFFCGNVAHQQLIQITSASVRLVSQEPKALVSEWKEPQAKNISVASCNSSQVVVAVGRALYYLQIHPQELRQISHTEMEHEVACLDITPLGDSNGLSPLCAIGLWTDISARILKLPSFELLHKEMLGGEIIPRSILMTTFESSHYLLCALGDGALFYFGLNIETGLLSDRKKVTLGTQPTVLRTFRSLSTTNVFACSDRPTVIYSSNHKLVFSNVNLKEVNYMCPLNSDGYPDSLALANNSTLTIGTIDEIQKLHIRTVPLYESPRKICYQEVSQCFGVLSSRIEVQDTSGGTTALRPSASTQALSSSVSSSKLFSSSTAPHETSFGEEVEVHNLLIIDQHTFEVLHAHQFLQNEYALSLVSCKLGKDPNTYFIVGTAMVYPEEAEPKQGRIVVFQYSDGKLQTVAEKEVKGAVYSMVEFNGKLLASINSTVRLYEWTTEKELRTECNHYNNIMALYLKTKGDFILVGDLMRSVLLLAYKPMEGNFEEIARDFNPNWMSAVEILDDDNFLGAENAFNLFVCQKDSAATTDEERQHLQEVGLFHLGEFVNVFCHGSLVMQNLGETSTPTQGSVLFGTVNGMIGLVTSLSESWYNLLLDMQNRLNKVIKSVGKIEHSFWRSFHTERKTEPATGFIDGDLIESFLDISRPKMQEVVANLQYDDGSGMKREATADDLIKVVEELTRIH
# [2] = system: human cell line NCI-H1770; assay: N-Myc-driven mouse xenograft model, NCI-H1770 (FIG. 3C); assay type: in vivo
# SALL4 = SALL4 (Homo sapiens (Human), UniProt Q9UJQ4); assay: substrate degradation in cells (FIG. 1A), SALL4; assay type: cell-based; settings: highest concentration tested of 30 μM
# [3] = system: NCI-H1155, ABC-1 and EBC-1, NCI-H2023; assay: viability assay (CellTiter-Glo) in N-Myc high and N-Myc low NSCLC cell lines; assay type: cell-based; settings: 72 hours
# Description: The anti-proliferative activity of compound 10 was tested on representative N-Myc high and N-Myc low cell lines (NCI-H1155, ABC-1 and EBC-1, NCI-H2023, respectively) following treatment with compound for 72 hours. Cells were sub-cultures as recommended by the providers (ATCC, DSMZ) and incubated at 37° C., 5% CO2. All cells were authenticated and confirmed by Short Tandem Repeat (STR) profiling. Briefly, cells were seeded to the appropriate density to allow logarithmic growth over the assay period in 96-well opaque-walled clear bottom plates (from Corning, Cat. No. 3903, Lot. No. 16419061; 100 μL total volume) and incubated overnight. […] Cell viability was assessed using the CellTiter-Glo assay kit as recommended by the Manufacturer (Promega, Cat. No. G7558, Lot. No. 0000385738) and measurements performed on the EnSpire multimode plate reader (Perkin Elmer). EC50 values were determined using Prism8 (GraphPad) and the asymmetric (five-parameter) equation and least squares fit. GSPT1 levels were assessed in the NCI-H1155 and ABC-1 cell lines by densitometry analysis following treatment with compound 10 for 6 hours and western blotting analysis. […] For chemiluminescence and colorimetric signals “optimal automatic exposure” settings (3×3 binning) were employed while fluorescence was detected using 1-4 seconds exposure time to achieve best GAPDH signals and avoid overexposure. […]
# GSPT1 [4] = biological target: T1, GSPT1; assay: GSPT1 levels by western blotting and densitometry in NCI-H1155 and ABC-1 cell lines; assay type: cell-based; settings: for DC50: six hours
# Description: The anti-proliferative activity of compound 10 was tested on representative N-Myc high and N-Myc low cell lines (NCI-H1155, ABC-1 and EBC-1, NCI-H2023, respectively) following treatment with compound for 72 hours. Cells were sub-cultures as recommended by the providers (ATCC, DSMZ) and incubated at 37° C., 5% CO2. All cells were authenticated and confirmed by Short Tandem Repeat (STR) profiling. Briefly, cells were seeded to the appropriate density to allow logarithmic growth over the assay period in 96-well opaque-walled clear bottom plates (from Corning, Cat. No. 3903, Lot. No. 16419061; 100 μL total volume) and incubated overnight. Compound 10 and DMSO control were subsequently dispensed to the plates using HPD300 and a 9 data-point titration curve with concentrations ranging from 30 μM to 0.1 nM. Dilutions were prepared fresh prior to the assay using a 10 mM DMSO stock. Final DMSO concentration was 0.5%. The plates were incubated for 3 days at 5% CO2, 37° C. Cell viability was assessed using the CellTiter-Glo assay kit as recommended by the Manufacturer (Promega, Cat. No. G7558, Lot. No. 0000385738) and measurements performed on the EnSpire multimode plate reader (Perkin Elmer). EC50 values were determined using Prism8 (GraphPad) and the asymmetric (five-parameter) equation and least squares fit. GSPT1 levels were assessed in the NCI-H1155 and ABC-1 cell lines by densitometry analysis following treatment with compound 10 for 6 hours and western blotting analysis. […] Membranes were then transferred between two clean sheets of plastic and chemiluminescence (GSPT1), Dylight680 fluorescence (GAPDH) as well as colorimetric (molecular weight standard) signals were detected using a Chemidoc MP imaging system (BioRad 17001402). For chemiluminescence and colorimetric signals “optimal automatic exposure” settings (3×3 binning) were employed while fluorescence was detected using 1-4 seconds exposure time to achieve best GAPDH signals and avoid overexposure. […]
# Target sequence in this assay (P15170 whole entry): as the sequence (P15170 whole entry, looked up) above
# Target sequence in this assay (Q96SW2 whole entry): as the sequence (Q96SW2 whole entry, looked up) above
# Target sequence in this assay (Q16531 2-1140 partner): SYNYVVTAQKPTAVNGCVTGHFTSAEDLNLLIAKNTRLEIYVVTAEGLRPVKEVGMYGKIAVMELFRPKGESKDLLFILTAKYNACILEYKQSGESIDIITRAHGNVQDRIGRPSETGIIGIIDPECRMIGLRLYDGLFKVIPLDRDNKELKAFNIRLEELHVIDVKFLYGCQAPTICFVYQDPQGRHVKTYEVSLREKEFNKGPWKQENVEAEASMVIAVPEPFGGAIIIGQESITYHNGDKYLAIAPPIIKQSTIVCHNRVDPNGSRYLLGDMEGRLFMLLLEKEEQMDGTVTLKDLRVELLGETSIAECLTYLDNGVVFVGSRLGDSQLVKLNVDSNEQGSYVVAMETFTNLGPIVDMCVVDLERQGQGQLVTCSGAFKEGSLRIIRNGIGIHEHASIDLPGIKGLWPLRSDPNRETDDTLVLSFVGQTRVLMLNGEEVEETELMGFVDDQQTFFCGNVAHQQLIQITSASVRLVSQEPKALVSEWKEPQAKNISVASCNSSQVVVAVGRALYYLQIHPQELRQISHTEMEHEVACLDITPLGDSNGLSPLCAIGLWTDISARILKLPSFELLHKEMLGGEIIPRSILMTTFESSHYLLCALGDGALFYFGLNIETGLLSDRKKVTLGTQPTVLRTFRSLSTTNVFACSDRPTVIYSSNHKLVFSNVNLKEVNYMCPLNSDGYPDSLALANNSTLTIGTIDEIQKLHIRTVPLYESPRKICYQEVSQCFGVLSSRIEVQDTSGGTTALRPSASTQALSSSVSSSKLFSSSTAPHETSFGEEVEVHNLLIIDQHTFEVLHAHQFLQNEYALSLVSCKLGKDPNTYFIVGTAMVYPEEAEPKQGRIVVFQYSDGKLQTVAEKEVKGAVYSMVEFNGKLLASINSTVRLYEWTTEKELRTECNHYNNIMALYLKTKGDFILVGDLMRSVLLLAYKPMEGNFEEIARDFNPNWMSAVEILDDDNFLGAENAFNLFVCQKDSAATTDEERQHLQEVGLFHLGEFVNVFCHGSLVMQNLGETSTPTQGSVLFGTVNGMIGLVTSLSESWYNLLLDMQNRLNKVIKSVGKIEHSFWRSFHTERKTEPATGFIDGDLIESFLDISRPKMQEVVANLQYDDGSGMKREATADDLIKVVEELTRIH
# [5] = system: NCI-H1155 cells (human non small cell lung cancer); assay: NCI-H1155 xenograft study; assay type: in vivo, female BALB/c nude mice
# Description: For the NCI-H1155 xenograft study, cells (human non small cell lung cancer, ATCC CRL-5818) were maintained in vitro as suspension culture in ATCC-formulated DMEM:F12 Medium supplemented as recommended by the provider and kept at 37° C. in an atmosphere of 5% CO2 in air. Cells (0.5 millions) were resuspended in 0.2 mL of PBS with Matrigel (50:50) and inoculated into female BALB/c nude mice, 6-8 weeks old, and allowed to grow to 150 mm^3 in size. Mice were dosed orally with either vehicle or compound 10 at 1 or 3 mg per kilogram daily (filled squares and filled triangles, respectively) or 6 mg per kilogram for 5 continous days followed by 9 days treatment holidays (5 On-9 off) (filled inverted triangles). Compound formulations were prepared fresh daily in 5%vDMSO/95%(30% w/v HP-β-CD in water). Gemcitabine dosed at 40 mg per kilogram, IP, Q4D×5 was used as a positive control (filled rhombi). For this study, mice were dosed for 21 days with tumor volumes measured every 3 days.
# GSPT1 [6] = biological target: GSPT1 (Homo sapiens (Human), UniProt P15170); assay: GSPT1 levels in NCI-H1155 tumors by western blotting; assay type: in vivo, female BALB/c nude mice; settings: 6 hours after the third dose, all three dose levels
# Description: GSPT1 levels in tumors were determined by western blotting 6 hours after the third dose. Western blotting was performed as described previously using GAPDH as loading control.
# CK1alpha, sequence (P48729 whole entry, looked up): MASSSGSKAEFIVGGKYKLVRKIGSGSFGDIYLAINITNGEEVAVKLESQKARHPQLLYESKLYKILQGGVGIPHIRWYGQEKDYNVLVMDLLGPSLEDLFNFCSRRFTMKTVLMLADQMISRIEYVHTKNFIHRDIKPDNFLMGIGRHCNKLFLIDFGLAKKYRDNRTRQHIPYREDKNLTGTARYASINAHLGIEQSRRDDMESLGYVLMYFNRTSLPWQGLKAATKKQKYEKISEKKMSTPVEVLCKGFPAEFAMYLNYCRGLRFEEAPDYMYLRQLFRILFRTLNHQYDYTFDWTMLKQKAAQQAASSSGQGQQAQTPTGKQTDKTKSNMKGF
# SALL4, sequence (Q9UJQ4 whole entry, looked up): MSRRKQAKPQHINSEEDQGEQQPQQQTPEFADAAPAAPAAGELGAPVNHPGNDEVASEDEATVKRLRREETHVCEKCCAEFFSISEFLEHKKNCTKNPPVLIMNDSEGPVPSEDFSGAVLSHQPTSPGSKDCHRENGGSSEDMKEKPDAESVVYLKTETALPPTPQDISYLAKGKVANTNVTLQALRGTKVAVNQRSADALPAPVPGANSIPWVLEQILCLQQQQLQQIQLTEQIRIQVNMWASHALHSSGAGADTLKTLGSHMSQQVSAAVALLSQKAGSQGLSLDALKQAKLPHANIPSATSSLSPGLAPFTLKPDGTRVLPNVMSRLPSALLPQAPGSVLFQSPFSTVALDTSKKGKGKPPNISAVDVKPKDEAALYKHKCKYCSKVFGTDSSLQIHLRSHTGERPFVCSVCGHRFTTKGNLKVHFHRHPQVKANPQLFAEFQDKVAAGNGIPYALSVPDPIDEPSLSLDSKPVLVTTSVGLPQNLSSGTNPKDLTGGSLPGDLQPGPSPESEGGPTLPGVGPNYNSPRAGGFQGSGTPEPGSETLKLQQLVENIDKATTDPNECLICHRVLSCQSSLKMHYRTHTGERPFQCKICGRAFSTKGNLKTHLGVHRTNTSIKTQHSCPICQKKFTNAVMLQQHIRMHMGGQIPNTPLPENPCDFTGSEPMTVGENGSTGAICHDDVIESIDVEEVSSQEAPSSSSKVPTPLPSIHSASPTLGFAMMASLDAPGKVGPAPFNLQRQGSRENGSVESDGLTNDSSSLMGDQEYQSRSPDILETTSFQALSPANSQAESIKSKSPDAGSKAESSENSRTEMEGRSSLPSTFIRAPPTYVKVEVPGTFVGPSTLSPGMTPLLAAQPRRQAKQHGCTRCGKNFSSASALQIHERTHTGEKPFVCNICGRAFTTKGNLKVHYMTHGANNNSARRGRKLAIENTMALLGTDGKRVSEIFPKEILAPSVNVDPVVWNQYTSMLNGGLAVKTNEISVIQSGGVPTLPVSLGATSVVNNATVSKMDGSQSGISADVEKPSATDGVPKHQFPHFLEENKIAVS
# GSPT1 (Homo sapiens (Human), UniProt P15170), sequence (P15170 whole entry): as the sequence (P15170 whole entry, looked up) above
# GSPT1 (Homo sapiens (Human), UniProt P15170), sequence (Q96SW2 whole entry, further chain): as the sequence (Q96SW2 whole entry, looked up) above
# GSPT1 (Homo sapiens (Human), UniProt P15170), sequence (Q16531 2-1140 partner): as the sequence (Q16531 2-1140 partner) above
structure (smiles),measurement,setting,value
Cc1ccc(NC(=O)OCc2ccc3c(c2)C(=O)N(C2CCC(=O)NC2=O)C3)cc1Cl (stereo not drawn) [Compound 10],degradation of IKZF1,IKZF1,no induction of degradation
same,degradation of IKZF3,IKZF3,no induction of degradation
same,degradation of CK1alpha,CK1alpha,no induction of degradation
same,sensitivity to treatment (viability in %),NCI-H1155,highly sensitive
same,sensitivity to treatment (viability in %),ABC-1,highly sensitive
same,DC50,GSPT1 [1]; ABC-1 cells,22 nM
same,relative levels of GSPT1 vs concentration,GSPT1 [1]; FIG. 2B,concentration dependent manner
same,DC50,GSPT1 [1]; NCI-H1155 cells,3 nM
same,extent of GSPT1 degradation,"GSPT1 [1]; both cell lines, NCI-H1155 and ABC-1",complete degradation
same,tumor size (tumor volume),[2]; 3 mg/kg PO once daily,tumor size decreased and remained so until the end of the study
same,tumor size (tumor volume),[2]; 6 mg/kg PO five days on and nine days off,tumor size decreased and remained so until the end of the study
same,body weight,[2]; oral administration,no body weight loss
same,effect on tumor growth (tumor volume),[2]; oral administration,tumor growth inhibition
same,SALL4 degradation (FIG. 1A),SALL4,"none of the known the substrates IKZF1, IKZF3, SALL4, CK1alpha was degraded"
same,anti-proliferative sensitivity (FIG. 2A),[3],sensitivity correlated with the expression of N-Myc
same,DC50,GSPT1 [4]; ABC-1 cells,22 nM
same,DC50,GSPT1 [4]; NCI-H1155 cells,3 nM
same,GSPT1 degradation,"GSPT1 [4]; high N-Myc NCI-H1155 and ABC-1 cells, six hours of treatment",Complete degradation of GSPT1
same,tumor growth (FIG. 3A),"[5]; 1 mg/kg once daily, oral",tumor growth was suppressed for two weeks
same,tumor size (FIG. 3A),"[5]; 3 mg/kg once daily, oral","tumor size decreased, became undetectable by day eight and remained so until the end of the study at day 21"
same,tumor size (FIG. 3A),"[5]; 6 mg/kg five days on and nine days off, oral","tumor size decreased, became undetectable by day eight and remained so until the end of the study at day 21"
same,body weight,[5]; oral administration,no body weight loss observed
same,tumor growth (FIG. 3A),[5]; oral administration,tumor growth inhibition
same,GSPT1 levels in tumors (FIG. 3B),GSPT1 [6],Complete degradation of GSPT1
